Experiments:
[1] = system: control sera (pooled serum of ten healthy LUMC hospital workers; commercial negative donor pooled serum from the Dutch bloodbank); format: binding, human; set-up: Binding of Control serum LUMC to linear peptides / Binding of Control serum Blood-bank to linear peptides / Binding of Control serum LUMC to looped peptides / Binding of Control Serum Blood-Bank to Looped peptides / Binding of Control serum LUMC to linear peptides of the protein M of SARS-CoV Urbani / Binding of Control serum Blood-bank to linear peptides of the protein M of SARS-CoV Urbani / Binding of Control serum LUMC to looped peptides of the protein M of SARS-CoV Urbani / Binding of Control Serum Blood-Bank to Looped peptides of the protein M of SARS-CoV Urbani: unit not given here
[2] = system: rabbit serum obtained by immunizing a rabbit with the SARS-CoV strain Frankfurt 1; format: binding; set-up: Binding of a rabbit serum to linear peptides / Binding of a rabbit serum to looped peptides / Rabbit serum linear peptides / Rabbit serum looped peptides / Binding of a rabbit serum to linear peptides of protein N of SARS-CoV Urbani (Rabbit serum linear peptides) / Binding of a rabbit serum to looped/cyclic peptides of protein N of SARS-CoV Urbani (Rabbit serum looped peptides): unit not given here
[3] = system: antibodies in sera from SARS patients (sera 1a, 1b, 2, 6, 37, 62, London, SARS-yellow, SARS-green); format: binding, human; set-up: Binding of serum 6 to linear peptides of protein X1 of SARS-CoV Urbani / Binding of serum 37 to linear peptides of protein X1 of SARS-CoV Urbani / Binding of serum 6 to looped/cyclic peptide (PEPSCAN-ELISA) / Binding of serum 37 to looped/cyclic peptide (PEPSCAN-ELISA) / Binding of serum 37 to looped/cyclic peptides of protein X1 of SARS-CoV Urbani / Binding of serum 6 to linear peptides of protein X2 / Binding of serum 37 to linear peptides of protein X2 / Binding of serum 37 to looped/cyclic peptides of protein X2 of SARS-CoV Urbani / Binding of serum 6 to linear peptides of protein M of SARS-CoV Urbani / Binding of serum 37 to linear peptides of protein M of SARS-CoV Urbani / Binding of serum 6 to looped/cyclic peptides of protein M of SARS-CoV Urbani / Binding of serum 37 to looped/cyclic peptides of protein M of SARS-CoV Urbani / Binding of serum 6 to linear peptides of protein X3 of SARS-CoV Urbani / Binding of serum 37 to linear peptides of protein X3 of SARS-CoV Urbani / Binding of serum 37 to looped/cyclic peptides of protein X3 of SARS-CoV Urbani / Binding of serum 6 to linear peptides of protein X4 of SARS-CoV Urbani / Binding of serum 37 to linear peptides of protein X4 of SARS-CoV Urbani / Binding of serum 37 to looped/cyclic peptides of protein X4 of SARS-CoV Urbani / Binding of serum 6 to linear peptides of protein X5 of SARS-CoV Urbani / Binding of serum 37 to linear peptides of protein X5 of SARS-CoV Urbani / Binding of serum 37 to looped/cyclic peptides of protein X5 of SARS-CoV Urbani / Binding of serum 6 to linear peptides of protein N of SARS-CoV Urbani / Binding of serum 37 to linear peptides of protein N of SARS-CoV Urbani / Binding of serum 6 to linear peptide (PEPSCAN-ELISA) / Binding of serum 1a to looped/cyclic peptides of protein N of SARS-CoV Urbani / Binding of serum 1b to looped/cyclic peptides of protein N of SARS-CoV Urbani / Binding of serum 2 to looped/cyclic peptides of protein N of SARS-CoV Urbani / Binding of serum 6 to looped/cyclic peptides of protein N of SARS-CoV Urbani / Binding of serum 37 to looped/cyclic peptides of protein N of SARS-CoV Urbani / Binding of serum 62 to looped/cyclic peptides of protein N of SARS-CoV Urbani / Binding of serum London to looped/cyclic peptides of protein N of SARS-CoV Urbani / Binding of serum SARS-green to looped/cyclic peptides of protein N of SARS-CoV Urbani: unit not given here

HITMTTVYHITVSQI
Binding of Control Serum Blood-Bank to Looped peptides [1]: 0.7
Binding of Control serum Blood-bank to linear peptides [1]: 0.5
Binding of Control serum LUMC to linear peptides [1]: 0.5
Binding of Control serum LUMC to looped peptides [1]: 0.6
Binding of a rabbit serum to linear peptides [2]: 0.7
Binding of a rabbit serum to looped peptides [2]: 0.4
Binding of serum 1a to linear peptides of protein X2 [3]: 0.6
Binding of serum 1a to looped/cyclic peptides of protein X2 of SARS-CoV Urbani [3]: 0.6
Binding of serum 1b to linear peptides of protein X2 [3]: 0.6
Binding of serum 1b to looped/cyclic peptides of protein X2 of SARS-CoV Urbani [3]: 0.6
Binding of serum 2 to linear peptides of protein X2 [3]: 0.5
Binding of serum 2 to looped/cyclic peptides of protein X2 of SARS-CoV Urbani [3]: 0.3
Binding of serum 6 to linear peptides of protein X2 [3]: 0.4
Binding of serum 6 to looped/cyclic peptides of protein X2 of SARS-CoV Urbani [3]: 0.3
Binding of serum 37 to linear peptides of protein X2 [3]: 0.6
Binding of serum 37 to looped/cyclic peptides of protein X2 of SARS-CoV Urbani [3]: 0.6
Binding of serum 62 to linear peptides of protein X2 [3]: 0.3
Binding of serum 62 to looped/cyclic peptides of protein X2 of SARS-CoV Urbani [3]: 0.7
Binding of serum London to linear peptides of protein X2 [3]: 0.4
Binding of serum London to looped/cyclic peptides of protein X2 of SARS-CoV Urbani [3]: 0.2
Binding of serum SARS-green to linear peptides of protein X2 [3]: 0.2
Binding of serum SARS-green to looped/cyclic peptides of protein X2 of SARS-CoV Urbani [3]: 0.4
Binding of serum SARS-yellow to linear peptides of protein X2 [3]: 0.7
Binding of serum SARS-yellow to looped/cyclic peptides of protein X2 of SARS-CoV Urbani [3]: 0.5

HKKVSTNLCTHSFRK
Binding of Control Serum Blood-Bank to Looped peptides [1]: 0.5
Binding of Control serum Blood-bank to linear peptides [1]: 0.8
Binding of Control serum LUMC to linear peptides [1]: 0.9
Binding of Control serum LUMC to looped peptides [1]: 0.8
Binding of a rabbit serum to linear peptides [2]: 0.4
Binding of a rabbit serum to looped peptides [2]: 0.1
Binding of serum 1a to looped/cyclic peptides of protein X2 of SARS-CoV Urbani [3]: 0.6
Binding of serum 1b to looped/cyclic peptides of protein X2 of SARS-CoV Urbani [3]: 0.4
Binding of serum 2 to looped/cyclic peptides of protein X2 of SARS-CoV Urbani [3]: 0.8
Binding of serum 6 to looped/cyclic peptides of protein X2 of SARS-CoV Urbani [3]: 0.6
Binding of serum 37 to looped/cyclic peptides of protein X2 of SARS-CoV Urbani [3]: 0.5
Binding of serum 62 to looped/cyclic peptides of protein X2 of SARS-CoV Urbani [3]: 0.7
Binding of serum London to looped/cyclic peptides of protein X2 of SARS-CoV Urbani [3]: 0.3
Binding of serum SARS-green to looped/cyclic peptides of protein X2 of SARS-CoV Urbani [3]: 0.3
Binding of serum SARS-yellow to looped/cyclic peptides of protein X2 of SARS-CoV Urbani [3]: 0.6
Recognition of the peptide by sera of SARS-CoV infected individuals, and form (linear, looped/cyclic) in which it is recognized [3]: recognized in linear form

HLLLVAAGMEAQFLY
Binding of Control Serum Blood-Bank to Looped peptides [1]: 0.6
Binding of Control serum Blood-bank to linear peptides [1]: 0.6
Binding of Control serum LUMC to linear peptides [1]: 0.7
Binding of Control serum LUMC to looped peptides [1]: 0.4
Binding of a rabbit serum to linear peptides [2]: 0.5
Binding of a rabbit serum to looped peptides [2]: 0.4
Binding of serum 1a to linear peptides of protein X1 of SARS-CoV Urbani [3]: 0.9
Binding of serum 1a to looped/cyclic peptide (PEPSCAN-ELISA) [3]: 0.5
Binding of serum 1b to linear peptides of protein X1 of SARS-CoV Urbani [3]: 0.7
Binding of serum 1b to looped/cyclic peptide (PEPSCAN-ELISA) [3]: 0.6
Binding of serum 2 to linear peptides of protein X1 of SARS-CoV Urbani [3]: 0.6
Binding of serum 2 to looped/cyclic peptide (PEPSCAN-ELISA) [3]: 0.6
Binding of serum 6 to linear peptides of protein X1 of SARS-CoV Urbani [3]: 0.5
Binding of serum 6 to looped/cyclic peptide (PEPSCAN-ELISA) [3]: 0.1
Binding of serum 37 to linear peptides of protein X1 of SARS-CoV Urbani [3]: 0.7
Binding of serum 37 to looped/cyclic peptide (PEPSCAN-ELISA) [3]: 0.6
Binding of serum 62 to linear peptides of protein X1 of SARS-CoV Urbani [3]: 0.7
Binding of serum 62 to looped/cyclic peptide (PEPSCAN-ELISA) [3]: 0.6
Binding of serum London to linear peptides of protein X1 of SARS-CoV Urbani [3]: 0.3
Binding of serum London to looped/cyclic peptide (PEPSCAN-ELISA) [3]: 0.2
Binding of serum SARS-green to linear peptides of protein X1 of SARS-CoV Urbani [3]: 0.2
Binding of serum SARS-green to looped/cyclic peptide (PEPSCAN-ELISA) [3]: 0.4
Binding of serum SARS-yellow to linear peptides of protein X1 of SARS-CoV Urbani [3]: 0.6
Binding of serum SARS-yellow to looped/cyclic peptide (PEPSCAN-ELISA) [3]: 0.3

HTYQLRARSVSPKLF
Binding of Control Serum Blood-Bank to Looped peptides [1]: 0.8
Binding of Control serum Blood-bank to linear peptides [1]: 1.0
Binding of Control serum LUMC to linear peptides [1]: 0.9
Binding of Control serum LUMC to looped peptides [1]: 0.7
Recognition of the peptide by the rabbit serum [2]: recognized
Binding of serum 1a to linear peptides of protein X4 of SARS-CoV Urbani [3]: 0.7
Binding of serum 1a to looped/cyclic peptides of protein X4 of SARS-CoV Urbani [3]: 0.8
Binding of serum 1b to linear peptides of protein X4 of SARS-CoV Urbani [3]: 0.8
Binding of serum 1b to looped/cyclic peptides of protein X4 of SARS-CoV Urbani [3]: 0.5
Binding of serum 2 to linear peptides of protein X4 of SARS-CoV Urbani [3]: 0.6
Binding of serum 2 to looped/cyclic peptides of protein X4 of SARS-CoV Urbani [3]: 0.8
Binding of serum 6 to linear peptides of protein X4 of SARS-CoV Urbani [3]: 1.0
Binding of serum 6 to looped/cyclic peptides of protein X4 of SARS-CoV Urbani [3]: 0.8
Binding of serum 37 to linear peptides of protein X4 of SARS-CoV Urbani [3]: 1.0
Binding of serum 37 to looped/cyclic peptides of protein X4 of SARS-CoV Urbani [3]: 0.6
Binding of serum 62 to linear peptides of protein X4 of SARS-CoV Urbani [3]: 0.9
Binding of serum 62 to looped/cyclic peptides of protein X4 of SARS-CoV Urbani [3]: 0.6
Binding of serum London to linear peptides of protein X4 of SARS-CoV Urbani [3]: 0.8
Binding of serum London to looped/cyclic peptides of protein X4 of SARS-CoV Urbani [3]: 0.3
Binding of serum SARS-green to linear peptides of protein X4 of SARS-CoV Urbani [3]: 0.7
Binding of serum SARS-green to looped/cyclic peptides of protein X4 of SARS-CoV Urbani [3]: 0.4
Binding of serum SARS-yellow to linear peptides of protein X4 of SARS-CoV Urbani [3]: 0.5
Binding of serum SARS-yellow to looped/cyclic peptides of protein X4 of SARS-CoV Urbani [3]: 0.8
